Source: patent US20130078298A1, “GASEOUS NITRIC OXIDE-SEQUESTERING PRODUCTS AND PROCESSES OF PREPARING SAME” (Enox Biopharma, Inc, priority 2010, published 2013)

Key:
E. coli [1] = assay: Sterilization of E. coli-inoculated catheter sections by nitric oxide dosing (CFU count); assay type: cell-based, Escherichia coli; conditions: 20,000 ppm NO, 30 cc/minutes
Protocol: Six-mm diameter Folysil® silicone Foley catheters, (catalog no. AA6118; Coloplast® Corp. Minneapolis, Minn., USA) (Folysil® and Coloplast® are registered trademarks of Coloplast A/S, Humlebaek, Denmark) were aseptically cut into 2-cm sections and inoculated by immersion in 2 ml of one of 10^3 CFU/ml, 10^5CFU/ml, or 10^8 CFU/ml E. coli. inocula for 30 minutes. Inoculated catheter sections were subsequently dosed with 20,000 parts per million of nitric oxide (at a flow rate of 30 cc/minutes) during 1, 5, 15, 30, 60 or 120 minutes, using the general procedure I described hereinabove. Control catheter sections were not impregnated with nitric oxide, but were stored in sterile sealed vials.
The nitric oxide-treated and untreated catheter segments were then immersed separately in 2 ml media and then incubated for 8 hours at 37° C. Aliquots of the incubation media were plated and numbers of CFU counted. Bacterial loads were calculated as CFU per ml.
Foley catheters, (catalog no. AA6118; Coloplast® Corp. Minneapolis, Minn., USA) is aseptically cut into 2-cm sections and inoculated by immersion in 2 ml of one of 10^3 CFU/ml, 10^5 CFU/ml, or 10^8 CFU/ml E. coli. inocula for 30 minutes. Inoculated catheter sections are subsequently dosed with nitric oxide using the general procedure II described hereinabove. Control catheter sections are not impregnated with nitric oxide, but are stored in sterile sealed vials.
The nitric oxide-treated and untreated catheter segments are then immersed separately in 2 ml media and incubated for 8 hours at 37° C. Aliquots of the incubation media are plated and numbers of CFU counted. Bacterial loads are calculated as CFU per ml.

E. coli [2] = assay: Biofilm sterilization by gaseous NO; assay type: cell-based, Escherichia coli; conditions: 20,000 ppm NO, 1 liter/minute, 5, 10, 30, 60 or 120 minutes
Protocol: (§1) A biofilm was established in each well of a 6-well plate and the time of treatment with nitric oxide gas for eradication of the biofilm was tested using the biofilm formation assay described hereinabove.
(§2) Briefly, 3 ml of LB media were placed in each well of 12 6-well plates and then each well was inoculated with 10 μl of stock bacteria (E. Coli or A. baumanii (6 plates for each bacterial type). Plates were incubated with agitation for 5 days at 37° C. to establish a biofilm in each well. The media was removed and each well washed twice with sterile saline.
(§3) Plates with established biofilms (one for each bacterial type) were treated with nitric oxide (20,000 ppm, 1 liter/minute flow rate) for 5, 10, 30, 60 or 120 minutes. Control plates were kept at room temperature, without treatment.
(§4) Three of the six wells for each plate were stained with crystal violet to confirm biofilm formation. The biofilm in the remaining 3 wells of each plate was re-suspended (with 30 seconds sonication) in 5 ml sterile saline. Aliquots of 1, 10 and 100 μl of each sample were plated in compartmentalized (3-section) petri plates.

A. baumanii = assay: Biofilm sterilization by gaseous NO; assay type: cell-based, Acinetobacter baumanii; conditions: 20,000 ppm NO, 1 liter/minute, 5, 10, 30, 60 or 120 minutes
Protocol: as §1, §2, §3, §4

Staphylococcus aureus = conditions: multiple 30 minute treatments of 160 ppm nitric oxide; cited from earlier work
E. coli [3] = conditions: multiple 30 minute treatments of 160 ppm nitric oxide; cited from earlier work
Pseudomonas aeruginosa = conditions: multiple 30 minute treatments of 160 ppm nitric oxide; cited from earlier work
Bacterial vaginosis (BV) = conditions: following metronidazole treatment of BV; cited from earlier work

| SMILES | treatment time after which the catheter segments were sterilized (E. coli [1]; 10^3 bacterial stock) | treatment time after which the catheter segments were sterilized (E. coli [1]; 10^5 bacterial stock) | treatment time after which the catheter segments were sterilized (E. coli [1]; 10^8 bacterial stock) | colonies from re-suspended established biofilm (E. coli [2]) | colonies from re-suspended established biofilm (A. baumanii) | decrease in the bacterial load (Staphylococcus aureus) | decrease in the bacterial load (E. coli [3]) | decrease in the bacterial load (Pseudomonas aeruginosa) | cure rate (Bacterial vaginosis (BV)) |
| --- | --- | --- | --- | --- | --- | --- | --- | --- | --- |
| [N]=O [nitric oxide] | 1 min | 15 min | 15 min | no colonies were observed | no colonies were observed | > 5 log 10 colony forming unit per milliliter (CFU/ml) | > 5 log 10 colony forming unit per milliliter (CFU/ml) | > 5 log 10 colony forming unit per milliliter (CFU/ml) |  |
| Cc1ncc([N+](=O)[O-])n1CCO [metronidazole] |  |  |  |  |  |  |  |  | 61% |
